The structures appear in SMILES notation. A value given as a limit tells only on which side of the number the result lay.

One assay deals with Human Factor D (Homo sapiens (Human), UniProt P00746). Nature of the assay: Human Factor D Assay. The assay is classed as biochemical. As to conditions: Factor D inhibition, assay of Example 10; read-out: IC5 (Stars). Summed up: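 Thioester substrate Z-L-Lys-SBz (100 μM) with Ellman's reagent DTNB (100 μM) reports activity of 80 nM human serum-derived enzyme, kinetically at 405 nm over 30 min. Compound preincubated 5 min, room temperature, pH 7.5 Tris/1 M NaCl; IC50 by nonlinear fit of rates.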
Sequence of Human Factor D (P00746 26-253): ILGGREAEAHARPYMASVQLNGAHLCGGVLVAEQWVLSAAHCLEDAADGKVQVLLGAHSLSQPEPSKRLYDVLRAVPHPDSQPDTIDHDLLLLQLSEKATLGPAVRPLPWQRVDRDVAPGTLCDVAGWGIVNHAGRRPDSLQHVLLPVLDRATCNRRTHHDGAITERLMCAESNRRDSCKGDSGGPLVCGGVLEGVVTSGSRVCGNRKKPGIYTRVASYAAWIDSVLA
Take `CC(=O)c1nn(CC(=O)N2[C@H](C(=O)Nc3nc(Br)c(F)cc3C)C[C@@]3(CN4C[C@H]5CCC[C@H]5C4)C[C@@H]23)c2cnc(-c3cnc(C)nc3)cc12` [Compound 253, (1R,3S,5R)-2-(2-(3-acetyl-5-(2-methylpyrimidin-5-yl)-1H-pyrazolo[3,4-c]pyridin-1-yl)acetyl)-N-(6-bromo-5-fluoro-3-methylpyridin-2-yl)-5-(((3aR,6aS)-hexahydrocyclopenta [c]pyrrol-2(1H)-yl)methyl)-2-azabicyclo[3.1.0]hexane-3-carboxamide]: the IC50 was below 1000 nM.
For `CC(=O)c1nn(CC(=O)N2[C@H](C(=O)Nc3nc(Br)c(F)cc3C)C[C@@]3(C)C[C@@H]23)c2cnc(-c3cnc(C)[n+]([O-])c3)cc12` [Compound 254, 5-(3-acetyl-1-(2-((1R,3S,5R)-3-((6-bromo-5-fluoro-3-methylpyridin-2-yl)carbamoyl)-5-methyl-2-azabicyclo[3.1.0]hexane-2-yl)-2-oxoethyl)-1H-pyrazolo[3,4-c]pyridin-5-yl)-2-methylpyrimidine 1-oxide], the IC50 is below 1000 nM.
Still for that read-out and setting: in the case of `CC(=O)c1nn(CC(=O)N2[C@H](C(=O)Nc3nc(OC(F)(F)F)ccc3C)C[C@@]3(C)C[C@@H]23)c2cnc(-c3cnc(C)nc3)cc12` [Compound 256] it was below 1000 nM.
On the same count and under the same terms, in the case of `CC(=O)c1nn(CC(=O)N2[C@H](C(=O)Nc3nc(Br)ccc3CC(C)C)C[C@@]3(C)C[C@@H]23)c2cnc(-c3cnc(C)nc3)cc12` [Compound 258, (1R,3S,5R)-2-(2-(3-acetyl-5-(2-methylpyrimidin-5-yl)-1H-pyrazolo[3,4-c]pyridin-1-yl)acetyl)-N-(6-bromo-3-isobutylpyridin-2-yl)-5-methyl-2-azabicyclo[3.1.0]hexane-3-carboxamide] it was below 1000 nM; in that of `CC(=O)c1nn(CC(=O)N2[C@H](C(=O)Nc3nc(Br)ccc3C)C[C@@]3(CN(CCO)CCO)C[C@@H]23)c2cnc(-c3cnc(C)nc3)cc12` [Compound 262, (1R,3S,5R)-2-(2-(3-acetyl-5-(2-methylpyrimidin-5-yl)-1H-pyrazolo[3,4-c]pyridin-1-yl)acetyl)-5-((bis(2-hydroxyethyl)amino)methyl)-N-(6-bromo-3-methylpyridin-2-yl)-2-azabicyclo[3.1.0] hexane-3-carboxamide], below 1000 nM.
Turning to `CC(=O)c1nn(CC(=O)N2[C@H](C(=O)Nc3nc(Br)c(F)cc3C)C[C@@]3(CN(C)C)C[C@@H]23)c2c(C)cc(-c3cnc(C)nc3)cc12` [Compound 263, (1R,3S,5R)-2-(2-(3-acetyl-7-methyl-5-(2-methylpyrimidin-5-yl)-1H-indazol-1-yl)acetyl)-N-(6-bromo-5-fluoro-3-methylpyridin-2-yl)-5-((dimethylamino)methyl)-2-azabicyclo[3.1.0] hexane-3-carboxamide], the IC50 is below 1000 nM.
With `CC(=O)c1nn(CC(=O)N2[C@H](C(=O)Nc3nc(Br)c(F)cc3C)C[C@@]3(CN(C)C)C[C@@H]23)c2cnc(-c3cnc(C)nc3)cc12` [Compound 264, (1R,3S,5R)-2-(2-(3-acetyl-5-(2-methylpyrimidin-5-yl)-1H-pyrazolo[3,4-c]pyridin-1-yl)acetyl)-N-(6-bromo-5-fluoro-3-methylpyridin-2-yl)-5-((dimethylamino)methyl)-2-azabicyclo[3.1.0] hexane-3-carboxamide], the IC50 is below 1000 nM.
Same read-out and setting: for `CC(=O)c1nn(CC(=O)N2[C@H](C(=O)Nc3nc(Br)c(F)cc3C)C[C@@]3(C)C[C@@H]23)c2c(C(F)(F)F)nc(-c3cnc(C)nc3)cc12` [Compound 271, (1R,3S,5R)-2-(2-(3-acetyl-5-(2-methylpyrimidin-5-yl)-7-(trifluoromethyl)-1H-pyrazolo[3,4-c]pyridin-1-yl)acetyl)-N-(6-bromo-5-fluoro-3-methylpyridin-2-yl)-5-methyl-2-azabicyclo[3.1.0]hexane-3-carboxamide] the value was below 1000 nM; for `CC(=O)c1nn(CC(=O)N2[C@H](C(=O)Nc3nc(Br)ccc3CN3CC4CC3CO4)C[C@@]3(C)C[C@@H]23)c2cnc(-c3cnc(C)nc3)cc12` (stereo partly drawn) [Compound 277, (1R,3S,5R)-N-(3-(2-oxa-5-azabicyclo[2.2.1]heptan-5-ylmethyl)-6-bromopyridin-2-yl)-2-(2-(3-acetyl-5-(2-methylpyrimidin-5-yl)-1H-pyrazolo[3,4-c]pyridin-1-yl)acetyl)-5-methyl-2-azabicyclo[3.1.0]hexane-3-carboxamide], below 1000 nM.
Regarding `CC(=O)c1nn(CC(=O)N2[C@H](C(=O)Nc3nc(Br)ccc3C)C[C@@]3([C@H](O)CO)C[C@@H]23)c2cnc(-c3cnc(C)nc3)cc12` [Compound 282], the IC50 was below 1000 nM.
`CC[C@@]12C[C@@H](C(=O)Nc3nc(Br)ccc3C)N(C(=O)Cn3nc(C(C)=O)c4cc(-c5cnc(C)nc5)ccc43)[C@@H]1C2` [Compound 286, (1R,3S,5R)-2-(2-(3-acetyl-5-(2-methylpyrimidin-5-yl)-1H-indazol-1-yl)acetyl)-N-(6-bromo-3-methylpyridin-2-yl)-5-ethyl-2-azabicyclo[3.1.0]hexane-3-carboxamide]: the IC50 is below 1000 nM.
For `CC(=O)c1nn(CC(=O)N2[C@H](C(=O)Nc3nc(Br)ccc3C)C[C@@]3(CCS(C)(=N)=O)C[C@@H]23)c2c(C)cc(-c3cnc(C)nc3)cc12` (stereo partly drawn) [Compound 287, (1R,3S,5R)-2-(2-(3-acetyl-7-methyl-5-(2-methylpyrimidin-5-yl)-1H-indazol-1-yl)acetyl)-N-(6-bromo-3-methylpyridin-2-yl)-5-(2-(S-methylsulfonimidoyl)ethyl)-2-azabicyclo[3.1.0]hexane-3-carboxamide], the IC50 was below 1000 nM.
For `CC(=O)c1nn(CC(=O)N2[C@H](C(=O)Nc3nc(Br)ccc3C)C[C@@]3(CCS(C)(=O)=O)C[C@@H]23)c2c(C)cc(-c3cnc(C)nc3)cc12` [Compound 288, (1R,3S,5R)-2-(2-(3-acetyl-7-methyl-5-(2-methylpyrimidin-5-yl)-1H-indazol-1-yl)acetyl)-N-(6-bromo-3-methylpyridin-2-yl)-5-(2-(methylsulfonyl)ethyl)-2-azabicyclo[3.1.0]hexane-3-carboxamide], the IC50 is below 1000 nM.
As for `CC(=O)c1nn(CC(=O)N2[C@H](C(=O)Nc3nc(Br)ccc3CN3C(C)(C)COCC3(C)C)C[C@@]3(C)C[C@@H]23)c2cnc(-c3cnc(C)nc3)cc12` [Compound 289, (1R,3S,5R)-2-(2-(3-acetyl-5-(2-methylpyrimidin-5-yl)-1H-pyrazolo[3,4-c]pyridin-1-yl)acetyl)-N-(6-bromo-3-((3,3,5,5-tetramethylmorpholino)methyl)pyridin-2-yl)-5-methyl-2-azabicyclo[3.1.0]hexane-3-carboxamide], the IC50 was below 1000 nM.
The same measure, in the same setting: for `CC(=O)c1nn(CC(=O)N2[C@H](C(=O)Nc3nc(Br)ccc3C)C[C@@]3(CN4CCCC4)C[C@@H]23)c2c(C)cc(-c3cnc(C)nc3)cc12` [Compound 296, (1R,3S,5R)-2-(2-(3-acetyl-7-methyl-5-(2-methylpyrimidin-5-yl)-1H-indazol-1-yl)acetyl)-N-(6-bromo-3-methylpyridin-2-yl)-5-(pyrrolidin-1-ylmethyl)-2-azabicyclo[3.1.0]hexane-3-carboxamide] the value was below 1000 nM; for `CC(=O)c1nn(CC(=O)N2[C@H](C(=O)Nc3nc(Br)ccc3C)C[C@@]3(CNC(C)C)C[C@@H]23)c2c(C)cc(-c3cnc(C)nc3)cc12` [Compound 297, (1R,3S,5R)-2-(2-(3-acetyl-7-methyl-5-(2-methylpyrimidin-5-yl)-1H-indazol-1-yl)acetyl)-N-(6-bromo-3-methylpyridin-2-yl)-5-((isopropylamino)methyl)-2-azabicyclo[3.1.0]hexane-3-carboxamide], below 1000 nM.
Still for that read-out and setting: for `COC(=O)[C@@H]1CCCN1C[C@@]12C[C@@H](C(=O)Nc3nc(Br)ccc3C)N(C(=O)Cn3nc(C(C)=O)c4cc(-c5cnc(C)nc5)cc(C)c43)[C@@H]1C2` [Compound 298, methyl (((1R,3S,5R)-2-(2-(3-acetyl-7-methyl-5-(2-methylpyrimidin-5-yl)-1H-indazol-1-yl)acetyl)-3-((6-bromo-3-methylpyridin-2-yl)carbamoyl)-2-azabicyclo[3.1.0]hexan-5-yl)methyl)-L-prolinate] the value was below 1000 nM.
As for `CC(=O)c1nn(CC(=O)N2[C@H](C(=O)Nc3nc(Br)ccc3C)C[C@@]3(CN4CCC[C@H]4C(=O)O)C[C@@H]23)c2c(C)cc(-c3cnc(C)nc3)cc12` [Compound 299, (((1R,3S,5R)-2-(2-(3-acetyl-7-methyl-5-(2-methylpyrimidin-5-yl)-1H-indazol-1-yl)acetyl)-3-((6-bromo-3-methylpyridin-2-yl)carbamoyl)-2-azabicyclo[3.1.0]hexan-5-yl)methyl)-L-proline], the IC50 was below 1000 nM.
As for `CC(=O)c1nn(CC(=O)N2[C@H](C(=O)Nc3nc(Br)ccc3C)C[C@@]3(CNC(C)(C)C)C[C@@H]23)c2c(C)cc(-c3cnc(C)nc3)cc12` [Compound 300, (1R,3S,5R)-2-(2-(3-acetyl-7-methyl-5-(2-methylpyrimidin-5-yl)-1H-indazol-1-yl)acetyl)-N-(6-bromo-3-methylpyridin-2-yl)-5-((tert-butylamino)methyl)-2-azabicyclo[3.1.0]hexane-3-carboxamide], the IC50 was below 1000 nM.

The same assay, now with this note: Table 8; Factor D 80 nM, substrate Z-L-Lys-SBz; read-out: IC50.
On to `C=CCCCC(=O)NC[C@@]12C[C@@H](C(=O)Nc3nc(Br)ccc3C)N(C(=O)Cn3nc(C(C)=O)c4cc(-c5cnc(C)nc5)cc(CCC=C)c43)[C@@H]1C2` [Compound 266, (1R,3S,5R)-2-(2-(3-acetyl-7-(but-3-en-l-yl)-5-(2-methylpyrimidin-5-yl)-1H-indazol-1-yl)acetyl)-N-(6-bromo-3-methylpyridin-2-yl)-5-(hex-5-enamidomethyl)-2-azabicyclo[3.1.0]hexane-3-carboxamide], for which the IC50 is below 1000 nM.

Source of the values: US11084800B2 (Achillion Pharmaceuticals, Inc., priority 2017, dated 2021).
